Reference: paper PMC12579162, “Synthesized Depside Molecules Suppress the Progression of Colorectal Cancer by Binding VDAC1/PHB/MMP9 Being at the Crossroads of Stemness, Motility, Apoptosis, and Metabolism” (MedComm, 2025)

How the values were obtained:
[1] = tested on: CSC221 cells; assay: Spheroid formation assay, CSC221; assay type: cell-based, human; conditions: for spheroid formation, cotreatment with cetuximab: CSC221, 5 µM with cetuximab 10, 25, and 50 µg/mL, 2 weeks; for spheroid formation: CSC221, up to 10 µM, 14 days, compared with TU and DA
Protocol: (§1) Monolayer cells were separated into single‐cell suspensions at around 70% confluence using a solution of trypsin. After that, the cells were added to N2‐supplemented DMEM/F12 that contained human basal fibroblast growth factor and human recombinant epidermal growth factor. Cells seeded at a density of 5 × 10^3 cells/well in ultra‐low attachment 24‐well plates (Corning Inc., Corning, NY, USA). After 10–14 days of culture, spheres were quantitated by inverted phase contrast microscopy. The relative sphere formation ability was calculated through the IMT iSolution software (IMT iSolution Inc., Northampton, NJ, USA) measuring the pixel intensity of the sphere area randomly in each plate.

[2] = tested on: HCT116 cells; assay: MTT cell viability, HCT116; assay type: cell-based; conditions: Homo sapiens, HCT-116; 48 h, MTT assay
Protocol: (§2) Cells (3 × 10^3 cells/well) were seeded on a 96‐well plate, grown overnight, and then treated with compounds at indicated concentrations for 48 h. After incubation with MTT for 4 h at 37°C, cells were lysed with 150 µL of DMSO (Sigma–Aldrich, St. Louis, USA). Absorbance was measured at 570 nm on a microplate reader with the Gen5 software (v.2.03.1; BioTek, Winooski, VT, USA).

[3] = tested on: CSC221 cells; assay: MTT cell viability, CSC221; assay type: cell-based; conditions: Homo sapiens; 48 h, MTT assay
Protocol: as §2

[4] = tested on: MCF10A cells; assay: Spheroid formation assay, MCF10A; assay type: cell-based, human; conditions: noncancerous MCF10A, 10–14 days
Protocol: as §1

[5] = tested on: MMP9 promoter in HEK293T cells; assay: MMP9 promoter reporter assay; assay type: cell-based, human; conditions: 2.5 and 5 µM, 24 h
Protocol: HEK293T was plated in a 24-well plate, left to attach, and then transfected with 100 ng of AP-1, STAT, Gli, CSL, TOPFLASH (with 100 ng β-catenin), NF-kB, Hes-1 and MMP9 reporter plasmids with 2 ng of Renilla-luc (pRL-TK) plasmid. MMP9 reporter assays were tested by stimulating Gli1-Flag, Gli2-Flag, ΔEN1-Myc, and MYC-flag plasmids. Transfections were performed using the X-treme GENE 9 DNA transfection reagent (Roche, Werk Penzberg, Germany). After 24 hours transfection, cells were treated with compounds or DMSO and incubated for 24 h at 37 °C under 5% CO2. The Dual-Luciferase reporter assay system (Promega, Madison, WI, USA) was used.

[6] = Pharmacokinetic study in rat; assay type: in vivo, Sprague–Dawley rats; conditions: male, Sprague-Dawley, plasma; for AUC(0-inf): read-out: AUCINF obs
Protocol: The stock solution of SB4 and SB5 was prepared at a concentration of 1.0 mg/mL in DMSO. Additionally, the standard solutions for SB4 and SB5 were prepared by diluting with 60% ACN (0.1% formic acid) in distilled water (DW). The final concentrations of the prepared standard solutions were 5, 10, 25, 50, 100, 250, 500, and 1000 ng/mL, and they were prepared in 1.5 mL polyethylene microtubes (Axygen Inc., Union City, CA, USA). Furthermore, quality control samples were manufactured using DMSO, with final concentrations of 15 ng/mL (low quality control), 80 ng/mL (mid quality control), and 800 ng/mL (high quality control) using 60% ACN (0.1% formic acid) in DW. The IS solution (Deucravacitinib) was also prepared in DMSO and diluted to a final concentration of 10 ng/mL in 60% ACN (0.1% formic acid) in DW.
The sample stored at −80°C was dissolved at room temperature, vortexed for 3 s, and a protein precipitation method using ACN was employed. In a 1.5 mL polyethylene microtube, 10 µL of the IS (10 ng/mL) was added to 45 µL of plasma, and 500 µL of ACN was added. Next, the sample was mixed in a vortex (M37610‐33; Barnstead International, USA) for 3 min. Then, 500 µL of the supernatant was centrifuged at 10000 g for 10 min and transferred to a LC vial, from which 10 µL was injected into the LC–MS/MS system.
The LC–MS/MS system comprises a SCIEX Triple Quad 6500+ system (Melbourne, Australia) coupled with a Shimadzu Nexera series SCL‐40 system controller, DGU‐405 degassing unit, LC‐40D X3 solvent delivery module, SIL‐40C X3 autosampler, and CTO‐40C column oven (Melbourne, Australia).
Chromatographic separations were performed using a Synergi 4 µm Hydro‐RP 80 Å, LC Column (30 × 2 mm). The mobile phase consisted of 0.1% FA in DW and ACN in 0.1% FA. The optimal flow rate was 0.5 mL/min, and the linear gradient elution profile was as follows: 0–0.5 min 20% B, 0.5–1.0 min 80% B, 1.0–2.0 min 80% B, 2.0–2.5 min 20% B, 2.5–3.0 min 20% B. The injection volume was 5 µL, and the total analysis time per sample was 3.0 min. The column oven temperature was maintained at 40°C.
The sample was ionized by an electrospray ionization source. The mass spectrometer was operated in positive ion mode with MRM scan mode for high sensitivity and selectivity. The turbo ion gas temperature was set at 400°C. To optimize the source parameters and compound parameters, a standard solution of 10 ng/mL was injected into the mass spectrometer at a rate of 7 µL/min through an infusion pump. The MRM transitions selected for quantification were m/z 375.075 to 150.100 for DA, m/z 447.113 to 415.200 for SB‐04, m/z 461.119 to 429.100 for SB‐05, and m/z 426.093 to 358.000 for the IS (Deucravacitinib). The system operating programs were Analyst software (version 1.7.2) and Chromelon.
The animal testing procedure was approved by the Animal Management Committee of Dankook University (21‐038). Seven‐week‐old male Sprague–Dawley rats (weighing 250–290 g) were purchased from Samtaco Inc. (Osan, South Korea). All rats were housed randomly in groups of four, maintained under appropriate lighting and room conditions (22 ± 2°C, relative humidity 50 ± 10%, with a 12‐h light/dark cycle). Prior to the experiments, the rats had free access to food (Samtaco Inc.) and water in their cages. The animal experiments were conducted after a minimum environmental adaptation period of 1 week. On the day of the experiments, the jugular vein of each rat was cannulated individually with polyethylene tubing (Clay Adams, Parsippany, NJ, USA) under anesthesia. The cannula was exteriorized to the dorsal side of the neck, where the cannula terminated with a long silastic tubing (Dow Corning, Midland, MI, USA). The silastic tube was covered with a wire to allow free movement of the rat. Each rat was housed individually in a rat metabolic cage (Daejong Scientific Company, Seoul, Korea) and was allowed to recover from anesthesia for 4–5 h before the study began. The rats were not restrained during the experimental period. […]

| IC50 [2] [µM] | AUC(0-t) ([6]; IP 10 mg/kg) [ng·h/mL] | Cmax ([6]; IP 10 mg/kg) [ng/mL] | Tmax ([6]; IP 10 mg/kg) [h] | AUC(0-inf) ([6]; IP 10 mg/kg) [ng·h/mL] | AUC(0-t) ([6]; PO 10 mg/kg) [ng·h/mL] | Cmax ([6]; PO 10 mg/kg) [ng/mL] | Tmax ([6]; PO 10 mg/kg) [h] | SMILES | spheroid formation, cotreatment with cetuximab [1] | spheroid formation [1] | IC50 [3] [µM] | spheroid formation [4] | MMP9 promoter activity [5] |
| --- | --- | --- | --- | --- | --- | --- | --- | --- | --- | --- | --- | --- | --- |
| 11.7 | 173 ± 16.3 | 60.8 ± 18.2 | 0.31 ± 0.13 | 394 ± 172 | 113 ± 19.2 | 27.8 ± 14.7 | 2.88 ± 2.59 | COCCOc1c(C)c(OC(=O)c2c(C)cc(OC)c(C)c2OC)cc(C)c1C(=O)OC [SB4, 4-(Methoxycarbonyl)-3-(2-methoxyethoxy)-2,5-dimethylphenyl 2,4-dimethoxy-3,6-dimethylbenzoate] | significantly reduced the adverse effects of cetuximab | suppress spheroid formation more strongly than TU and DA | 60 | did not change the inhibition or induction of spheroid formation in a statistically significant way | downregulated |
| 4.5 | 108 ± 17.9 | 45.63 ± 0.31 | 0.31 ± 0.13 | 209 ± 32.4 | 87.1 ± 11.8 | 22 ± 8.01 | 4.13 ± 2.59 | COCCCOc1c(C)c(OC(=O)c2c(C)cc(OC)c(C)c2OC)cc(C)c1C(=O)OC [SB5, 4-(Methoxycarbonyl)-3-(3-methoxypropoxy)-2,5-dimethylphenyl 2,4-dimethoxy-3,6-dimethylbenzoate] | significantly reduced the adverse effects of cetuximab | suppress spheroid formation more strongly than TU and DA | 131 | did not change the inhibition or induction of spheroid formation in a statistically significant way | downregulated |
